14 compounds from PubChem BioAssay AID256 (DTP/NCI, 2004) can be followed below.

SMILES strings stand for the structures. “And” between values parts separate entries of the source, which are not always exact repeats. Equal values may be shown once. Inconclusive results and toxic doses are left out.

In this assay the test system is CD2F1 mice, L1210 leukemia ip, survival T/C. Put plainly: NCI In Vivo Anticancer Drug Screen. Data for tumor model L1210 Leukemia (intraperitoneal) in CD2F1 (CDF1) mice. The following applies: endpoint: mean survival time, higher = longer survival. In short, it runs like this:
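Mice carrying a transplanted tumor received test compound or vehicle alone. The value is the measurement in the treated group divided by that in the vehicle-treated control group.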

Where [1] appears, read: dose: 100.0 mg/kg/injection, schedule: Q01DX009 (ip), vehicle: saline with Tween-80.
Where [2] appears, read: dose: 200.0 mg/kg/injection, schedule: Q01DX009 (ip), vehicle: saline with Tween-80.
[3] abbreviates: dose: 400.0 mg/kg/injection, schedule: Q01DX009 (ip), vehicle: saline with Tween-80.
Setting [4] is: dose: 25.0 mg/kg/injection, schedule: Q01DX009 (ip), vehicle: saline.
Where [5] appears, read: dose: 25.0 mg/kg/injection, schedule: Q04DX003 (ip), vehicle: saline.
Setting [6] is: dose: 50.0 mg/kg/injection, schedule: Q04DX003 (ip), vehicle: saline.

With `CCCCCCCC[n+]1cccc(C(=O)c2ccccc2)c1`, the T/C (dose: 75.0 mg/kg/injection, schedule: Q01DX001 (ip), vehicle: saline) was 105 % of control.
As for `Nc1ccn(C2OC(CO)C3[O][Sn]([c]4ccccc4)([c]4ccccc4)[O]C32)c(=O)n1` (stereo not given), the T/C by setting is: (dose: 1.56 mg/kg/injection, schedule: Q01DX005 (ip), vehicle: other) 100 % of control; (dose: 3.13 mg/kg/injection, schedule: Q01DX005 (ip), vehicle: other) 94 % of control; (dose: 6.25 mg/kg/injection, schedule: Q01DX005 (ip), vehicle: other) 100 % of control; (dose: 12.5 mg/kg/injection, schedule: Q01DX005 (ip), vehicle: other) 94 % of control and 104 % of control.
On to `C(=Nc1ccccc1)c1ccc(-c2ccccc2)cc1`, for which the T/C under setting [1] was 95 % of control; the T/C (dose: 100.0 mg/kg/injection, schedule: Q04DX003 (ip), vehicle: saline sonified) is 97 % of control; the T/C under setting [2] is 98 % of control; the T/C (dose: 200.0 mg/kg/injection, schedule: Q04DX003 (ip), vehicle: saline sonified) was 101 % of control; the T/C under setting [3] was 108 % of control; the T/C (dose: 400.0 mg/kg/injection, schedule: Q04DX003 (ip), vehicle: saline sonified) is 94 % of control.
As for `CN1CCCN(O)C1=O`, the T/C (dose: 37.5 mg/kg/injection, schedule: Q01DX007 (ip), vehicle: saline) was 94 % of control; the T/C (dose: 75.0 mg/kg/injection, schedule: Q01DX007 (ip), vehicle: saline) is 92 % of control; the T/C (dose: 150.0 mg/kg/injection, schedule: Q01DX007 (ip), vehicle: saline) was 94 % of control; the T/C (dose: 300.0 mg/kg/injection, schedule: Q01DX007 (ip), vehicle: saline) was 100 % of control; the T/C (dose: 600.0 mg/kg/injection, schedule: Q01DX007 (ip), vehicle: saline) is 100 % of control.
Take `CCn1c(-c2cccc(N)c2)cc(=O)n1-c1ccccc1`: the T/C runs as follows: (dose: 100.0 mg/kg/injection, schedule: Q04DX003 (ip), vehicle: saline with Tween-80) 98 % of control; (dose: 200.0 mg/kg/injection, schedule: Q04DX003 (ip), vehicle: saline with Tween-80) 96 % of control; (dose: 400.0 mg/kg/injection, schedule: Q04DX003 (ip), vehicle: saline with Tween-80) 90 % of control.
As to `[Cl][Pt]([Cl])([Cl])[Cl]`, the T/C reads like this: (dose: 3.13 mg/kg/injection, schedule: Q01DX009 (ip), vehicle: saline) 100 % of control; (dose: 3.13 mg/kg/injection, schedule: Q01DX009 (ip), vehicle: suspension in saline) 101 % of control; (dose: 6.25 mg/kg/injection, schedule: Q01DX009 (ip), vehicle: saline) 113 % of control; (dose: 6.25 mg/kg/injection, schedule: Q01DX009 (ip), vehicle: suspension in saline) 107 % of control; (dose: 12.5 mg/kg/injection, schedule: Q01DX009 (ip), vehicle: saline) 121 % of control; (dose: 12.5 mg/kg/injection, schedule: Q01DX009 (ip), vehicle: suspension in saline) 121 % of control. In addition, the T/C is, setting by setting: under setting [4], 113 % of control and 102 % of control; (dose: 25.0 mg/kg/injection, schedule: Q01DX009 (ip), vehicle: suspension in saline) 124 % of control; under setting [5], 108 % of control and 107 % of control; under setting [6], 97 % of control and 105 % of control.
As for `COC(=O)NC(/C=C/c1ccccc1)c1ccccc1` (stereo not given), the T/C is 94 % of control (dose: 100.0 mg/kg/injection, schedule: Q04DX003 (ip), vehicle: other); 97 % of control (dose: 200.0 mg/kg/injection, schedule: Q04DX003 (ip), vehicle: other); 97 % of control (dose: 400.0 mg/kg/injection, schedule: Q04DX003 (ip), vehicle: other).
With `CCOCCSc1ccccc1`, the T/C (dose: 100.0 mg/kg/injection, schedule: Q01DX001 (ip), vehicle: saline) was 104 % of control; the T/C (dose: 200.0 mg/kg/injection, schedule: Q01DX001 (ip), vehicle: saline) was 102 % of control; the T/C (dose: 400.0 mg/kg/injection, schedule: Q01DX001 (ip), vehicle: saline) is 102 % of control.
Regarding `CCOC(=O)Nc1cc2c(c(N)n1)N=C(c1ccc(-c3ccccc3)cc1)CN2`, the T/C reads like this: (dose: 0.78 mg/kg/injection, schedule: Q01DX009 (ip), vehicle: Klucel (hydroxypropylcellulose) (HPC)) 106 % of control; (dose: 1.56 mg/kg/injection, schedule: Q01DX009 (ip), vehicle: Klucel (hydroxypropylcellulose) (HPC)) 112 % of control; (dose: 3.12 mg/kg/injection, schedule: Q01DX009 (ip), vehicle: Klucel (hydroxypropylcellulose) (HPC)) 114 % of control and 111 % of control; (dose: 6.25 mg/kg/injection, schedule: Q01DX009 (ip), vehicle: Klucel (hydroxypropylcellulose) (HPC)) 109 % of control; (dose: 12.5 mg/kg/injection, schedule: Q01DX001 (ip), vehicle: Klucel (hydroxypropylcellulose) (HPC)) 115 % of control; (dose: 12.5 mg/kg/injection, schedule: Q01DX009 (ip), vehicle: Klucel (hydroxypropylcellulose) (HPC)) 89 % of control. In addition, under “dose: 50.0 mg/kg/injection, schedule: Q01DX001 (ip), vehicle: Klucel (hydroxypropylcellulose) (HPC)”, the T/C was 121 % of control.
With `O=c1[nH]c(=O)n([C@H]2CCCO2)cc1F`, the T/C (dose: 25.0 mg/kg/injection, schedule: Q01DX005 (ip), vehicle: other) is 93 % of control; the T/C (dose: 25.0 mg/kg/injection, schedule: Q01DX009 (ip), vehicle: saline with Tween-80) was 97 % of control; the T/C under setting [5] is 90 % of control; the T/C (dose: 50.0 mg/kg/injection, schedule: Q01DX005 (ip), vehicle: other) was 93 % of control; the T/C (dose: 50.0 mg/kg/injection, schedule: Q01DX009 (ip), vehicle: saline with Tween-80) is 101 % of control; the T/C under setting [6] is 100 % of control. Besides, the T/C (dose: 100.0 mg/kg/injection, schedule: Q01DX005 (ip), vehicle: other) is 114 % of control; the T/C (dose: 100.0 mg/kg/injection, schedule: Q04DX003 (ip), vehicle: saline) was 105 % of control; the T/C (dose: 112.5 mg/kg/injection, schedule: Q04DX003 (ip), vehicle: saline with Tween-80) is 106 % of control; the T/C (dose: 112.5 mg/kg/injection, schedule: Q04DX003 (iv), vehicle: saline with Tween-80) is 104 % of control; the T/C (dose: 225.0 mg/kg/injection, schedule: Q04DX003 (ip), vehicle: saline with Tween-80) is 116 % of control; the T/C (dose: 225.0 mg/kg/injection, schedule: Q04DX003 (iv), vehicle: saline with Tween-80) was 113 % of control. Moreover, the T/C is, setting by setting: (dose: 400.0 mg/kg/injection, schedule: Q01DX005 (ip), vehicle: other) 95 % of control; under setting [3], 104 % of control; (dose: 400.0 mg/kg/injection, schedule: Q04DX003 (ip), vehicle: saline) 158 % of control; (dose: 450.0 mg/kg/injection, schedule: Q04DX003 (ip), vehicle: saline with Tween-80) 153 % of control.
For the compound `CC(C)(C)C(=O)C#Cc1ccccc1`, the T/C by setting is: under setting [4], 94 % of control; (dose: 50.0 mg/kg/injection, schedule: Q01DX009 (ip), vehicle: saline) 97 % of control.
For the compound `O=C(O)C1C2C=CC3(O2)C(=O)N(Cc2ccccc2)C(=O)C13` (stereo not given), the T/C is, setting by setting: (dose: 100.0 mg/kg/injection, schedule: Q04DX002 (ip), vehicle: saline with Tween-80) 95 % of control; (dose: 200.0 mg/kg/injection, schedule: Q04DX002 (ip), vehicle: saline with Tween-80) 103 % of control; (dose: 400.0 mg/kg/injection, schedule: Q04DX002 (ip), vehicle: saline with Tween-80) 98 % of control.
Consider `C[C@]12CCC(=O)C=C1CC[C@@H]1[C@@H]2[C@@H](O)C[C@@]2(C)[C@H]1CC[C@]2(O)C(=O)COP(=O)(O)OCC1OC(n2ccc(N)nc2=O)C(O)C1O` (stereo not given in full), for which the T/C (dose: 5.0 mg/kg/injection, schedule: Q01DX005 (ip), vehicle: other) was 104 % of control; the T/C (dose: 10.0 mg/kg/injection, schedule: Q01DX005 (ip), vehicle: other) is 110 % of control; the T/C (dose: 15.0 mg/kg/injection, schedule: Q01DX005 (ip), vehicle: other) is 115 % of control; the T/C (dose: 120.0 mg/kg/injection, schedule: Q01DX005 (ip), vehicle: other) was 150 % of control; the T/C (dose: 240.0 mg/kg/injection, schedule: Q01DX005 (ip), vehicle: other) is 162 % of control.
Regarding `Nc1ccc2nc3c4ccccc4c(O)n3nc2c1`, the T/C runs as follows: under setting [1], 89 % of control; under setting [2], 104 % of control.
